In patent US11197885B2, “Collagen enhancing agent made from low acyl gellan gum, methods of making and methods of using the same” (The University of Toledo, priority 2015, dated 2021):

Key:
[1] = tested on: differentiated dopaminergic PC12 cells exposed to 30 μM 6-OHDA; assay: LIVE/DEAD viability of differentiated PC12 cells exposed to 6-OHDA; type: cell-based; conditions: 1 μM for 6 h, then 30 μM 6-OHDA for 24 h
Procedure: Differentiated dopaminergic PC12 cells and primary mouse embryonic cortical neurons (E17, DIV14) were treated with mock (H2O) or 1 μM of dextran, alginate, HA-GAGR, or midi-GAGR for 6 h and insulated by oxidative stressors (30 μM 6-OHDA [PC12] and 10 μM amyloid β peptide [cortical neurons]) for 24 h.

[2] = tested on: phosphorylated CREB in mouse embryonic cortical neurons; assay: nuclear p-CREB immunostaining in embryonic cortical neurons (Example 2); type: cell-based; conditions: 1 μM, 24 h
Procedure: (§1) Differentiated PC12 cells and mouse embryonic cortical neurons (E17, DIV14) were treated with mock, dextran, alginate, HA-GAGR, or midi-GAGR (1 μM) for 24 h and fixed in 3.7% paraformaldehyde. The fixed cells and neurons were immunostained with antibodies against α-tubulin and phosopho-CREB (p-CREB) along with DAPI (nucleus).

[3] = molecular target: FGFR1 (Mus musculus, UniProt P16092); assay: affinity chromatography with midi-GAGR-conjugated sepharose beads, FGFR1 immunoblotting; type: binding; set-up: Whole mouse brains were homogenized for cytosol extraction in PMEE buffer containing 1% Igepal CA-630; from tissue; host or cells: mouse brain (cerebral cortex / whole brain) detergent extract; conditions: 0.5% Igepal CA-630 PMEE buffer
FGFR1, sequence (P16092 22-822): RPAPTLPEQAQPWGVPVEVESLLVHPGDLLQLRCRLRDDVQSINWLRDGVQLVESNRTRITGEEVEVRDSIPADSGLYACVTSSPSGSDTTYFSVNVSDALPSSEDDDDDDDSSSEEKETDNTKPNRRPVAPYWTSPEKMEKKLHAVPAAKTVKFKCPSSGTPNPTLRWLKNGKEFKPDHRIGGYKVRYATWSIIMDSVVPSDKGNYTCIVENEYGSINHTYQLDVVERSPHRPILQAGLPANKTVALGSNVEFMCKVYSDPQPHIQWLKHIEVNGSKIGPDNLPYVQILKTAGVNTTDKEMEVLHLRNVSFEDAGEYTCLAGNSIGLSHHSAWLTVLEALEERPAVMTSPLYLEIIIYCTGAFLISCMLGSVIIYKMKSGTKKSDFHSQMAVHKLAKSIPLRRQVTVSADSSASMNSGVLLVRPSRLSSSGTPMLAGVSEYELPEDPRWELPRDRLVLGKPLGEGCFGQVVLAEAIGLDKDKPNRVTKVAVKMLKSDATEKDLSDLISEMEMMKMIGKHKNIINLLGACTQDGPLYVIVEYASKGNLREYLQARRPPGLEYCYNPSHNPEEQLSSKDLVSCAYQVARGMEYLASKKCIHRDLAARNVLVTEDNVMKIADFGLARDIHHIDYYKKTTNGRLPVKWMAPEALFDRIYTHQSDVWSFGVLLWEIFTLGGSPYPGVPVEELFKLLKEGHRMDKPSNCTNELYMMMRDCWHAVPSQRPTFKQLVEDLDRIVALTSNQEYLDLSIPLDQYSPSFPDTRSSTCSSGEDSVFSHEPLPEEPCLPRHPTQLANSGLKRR
Procedure: To examine whether midi-GAGR interacts with synaptosomal FGFR1 or not, an affinity chromatography using midi-GAGR-conjugated sepharose beads was performed. Either midi-GAGR or dextran were conjugated to epoxy-activated sepharose 6B that is a pre-activated medium that can be conjugated to the hydroxyl groups of carbohydrates. Briefly, 200 μL of 7.4 mM midi-GAGR or 5 kD dextran in H2O was mixed with 200 μL of epoxy-activated sepharose beads in a microtube and incubated on a rotator (16 h, 37° C.). The mixture was spun down at 1,000×g (10 min) to separate bead-bound polysaccharides from unbound. Unoccupied active sites on beads were blocked by incubation (4 h, 45° C.) in 1 M ethanolamine (pH 8). Then, beads were washed with three cycles of alternating pH solutions—0.1 M acetate buffer (pH 4) and 0.1 M Tris-HCl buffer (pH 8), both containing 0.5 M NaCl. The conjugation of polysaccharides to beads was confirmed by phenol-sulfuric acid colorimetry. Cerebral cortices were dissected from four female mice (BALB/C, 8 wks old) and homogenized with a hand grinder in 1 mL of PMEE homogenization buffer plus 1% Igepal CA-630 and protease inhibitors (PIs). The homogenate was centrifuged at 1,000×g (10 min) to remove nuclei and undisrupted cells. The supernatant was subjected to 5-6 strokes through 27G needle. Post-nuclear supernatant was centrifuged at 1,000×g (15 min). […]

[4] = tested on: phosphorylated CREB in differentiated PC12 cells; assay: nuclear p-CREB immunostaining in differentiated PC12 cells; type: cell-based; conditions: 1 μM, 24 h
Procedure: as §1

dextran
6-OHDA-induced cell death [1]: did not | increase in levels of nuclear p-CREB [2]: not significantly increased | FGFR1 pulled down from brain extract by polysaccharide-conjugated beads [3]: not | increase in levels of nuclear p-CREB [4]: not significantly increased
